# System: rat MCAO model
# Assay: Rat MCAO stroke model, adhesive removal test
# Assay type: in vivo
# Settings: for Time to remove the adhesive tape from the contralateral paw: day 27, subcutaneous 25 microliters twice a week, each compound 0.65% (w/w) in cottonseed oil, versus vehicle and base line (FIG. 14A)
# Excerpt: For the experiments described herein, the animals are anesthetized using ketamine/xylazine solution. The animal's neck is then shaved and a midline incision is made in the skin of the neck, and the tissue underneath is bluntly dissected. The right common carotid artery (CCA) and its junction with the external carotid artery (ECA) and internal carotid artery (ICA) are exposed by blunt dissection. The CCA is then transiently closed by positioning around it a 3-0 silk suture material. The ECA is permanently occluded with the same type of suture material. A third closure, transient, is also done in the ICA with 3-0 silk suture material.
# A small hole is cut in the ECA and the nylon thread is inserted into the ICA while avoiding entrance into the pterygopalatine artery. The thread is inserted 21-25 mm until a slight resistance is felt. Then a 3-0 silk suture knot secures the thread.
# Following surgery, the rats are returned to their cages and remain under a heating lamp until they awake.
# Two parameters are monitored and recorded during the ischemic surgery procedure: animal's core temperature and blood glucose level (BGL).
# Core temperature is monitored using rectal probe (YSI USA model 400) connected to a measuring unit (Cole Parmer model 8402-00) during the entire surgery period. Ischemic insult is started when rectal temperature is 37-38° C.
# The rats of the different groups were injected twice a week subcutaneous with 25 microliters of designated test item. First injection was given three hours after stroke induction.
# • Vehicle: cottonseed oil • IMDA: 0.65% (w/w) in cottonseed oil • MDA: 0.65% (w/w) in cottonseed oil • IMDA and MDA: each 0.65% (w/w) in cottonseed oil • IMDA, MDA and OA: each 0.65% (w/w) in cottonseed oil MDA alone; IMDA alone; a combination of MDA+IMDA; and a combination of OA+MDA+IMDA, were tested using a rat MCAO model, for their therapeutic capacity. Stroke induced rats were treated with each of the tested compounds and the improvement of their sensorimotor abilities were tested using the adhesive removal test. […] The time to remove the tape is recorded. […]
SMILES,Time to remove the adhesive tape from the contralateral paw,"Baseline fold change, removal of adhesive tape from the contralateral paw (day 27 relative to base line score (FIG. 14B)) [fold]"
"C/C(=C\CC[C@H](C)[C@@H]1CC[C@]2(C)C3=CC[C@H]4C(C)(C)C(=O)CC[C@]4(C)[C@H]3CC[C@@]12C)C(=O)O [MDA, Masticadienoic acid]",only slightly better than the vehicle control,
"CC(=CCCC(C)C1CCC2(C)C3=C(CCC12C)C1(C)CCC(=O)C(C)(C)C1CC3)C(=O)O (stereo not drawn) [IMDA, Isomasticadienoic acid]",able to improve the score of treated rats,10
